Measurements reported in US20260199324A1, “METHOD OF TREATING BREAST CANCER” (Arvinas Operations, Inc., priority 2022, published 2026).
Structures can show the parent of a compound that is named as a salt.

Columns and labels:
[1] = Safety and tolerability (TEAEs, clinical laboratory tests, vital signs, ECGs) in the Phase 1 drug-drug interaction study; assay type: in vivo, human; conditions: for number of all-causality adverse events (AEs): 24 participants
Excerpt: This was a Phase 1, open-label, 2-period, fixed-sequence study to estimate the effect of a single oral dose of Compound A on the PK of a P-gp substrate, dabigatran etexilate (as mesylate), in healthy male participants and female participants with nonchildbearing potential.
On Period 1 Day 1, a standard breakfast (approximately 700 calories with a fat content of approximately 35%) was provided prior to dosing. The standard breakfast was required to be completely consumed within an approximately 20-minute period. A single dose of 75 mg dabigatran etexilate (as mesylate) (as 1 capsule of 75 mg) was administered approximately 2 hrs (120 mins) after starting the standard breakfast. To adequately remove any drug effects of dabigatran, a minimum washout period of 4 days was required after dabigatran etexilate (as mesylate) administration on Period 1 Day 1. Serial PK samples were collected up to 48 hrs after single dose administration to determine dabigatran PK parameters (total).
On Period 2 Day 1, a standard breakfast (approximately 700 calories with a fat content of approximately 35%) was provided prior to Compound A and dabigatran etexilate (as mesylate) dosing. The standard breakfast was required to be the same as provided in Period 1 Day 1 and was required to be completely consumed within an approximately 20-minute period. A single dose of 200 mg Compound A (as 2 tablets of 100 mg) was administered approximately 10 mins after the completion of the breakfast. A single dose of 75 mg dabigatran etexilate
(as mesylate) (as 1 capsule of 75 mg) was administered approximately 1.5 hour (90 mins) after the start of Compound A dosing, which was approximately 2 hrs (120 mins) after the start of the breakfast. Serial PK samples were collected up to 48 hrs post dabigatran etexilate (as mesylate) dosing to determine the single dose PK parameters of Compound A and dabigatran (total) • Masking: No masking (open label) • Enrollment number: 24
Compound A co-administered with dabigatran etexilate mesylate was the test treatment. All safety analyses were performed on the safety analysis set. Safety data were presented in tabular and/or graphical format and summarized descriptively, where appropriate in accordance with the Clinical Data Interchange Standards Consortium Standards […].

[2] = Preclinical exposure of epimer Compound B compared to Compound A; assay type: in vivo; conditions: preclinical data; Compound B formed by interconversion (epimer) of Compound A
ER = biological target: T1, ER (Homo sapiens, UniProt P03372); assay: ER degradation; assay type: cell-based
T1 sequence (P03372 1-595): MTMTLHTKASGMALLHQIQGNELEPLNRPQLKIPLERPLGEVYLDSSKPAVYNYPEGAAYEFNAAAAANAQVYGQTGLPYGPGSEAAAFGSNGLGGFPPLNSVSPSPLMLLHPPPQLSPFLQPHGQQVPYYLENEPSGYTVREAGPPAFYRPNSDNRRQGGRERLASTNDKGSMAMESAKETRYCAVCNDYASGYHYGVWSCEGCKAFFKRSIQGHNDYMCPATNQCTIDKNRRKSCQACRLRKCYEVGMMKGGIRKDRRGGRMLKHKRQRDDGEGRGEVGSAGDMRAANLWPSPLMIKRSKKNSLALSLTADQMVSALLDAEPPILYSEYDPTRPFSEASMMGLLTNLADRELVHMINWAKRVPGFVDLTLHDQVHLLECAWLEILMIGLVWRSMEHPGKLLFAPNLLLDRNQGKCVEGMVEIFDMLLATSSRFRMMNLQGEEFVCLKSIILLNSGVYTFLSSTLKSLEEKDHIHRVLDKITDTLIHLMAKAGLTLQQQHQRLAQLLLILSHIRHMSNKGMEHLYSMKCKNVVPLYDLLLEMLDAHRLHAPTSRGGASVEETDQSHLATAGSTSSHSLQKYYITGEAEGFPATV

[3] = test system: ER-dependent transcription; assay: Antagonism of ER-dependent transcription; assay type: cell-based
[4] = Biopharmaceutics Classification System class; assay type: physicochemical; conditions: low solubility/low permeability
P-gp = biological target: T2, P-gp (Homo sapiens, UniProt P08183); assay: Phase 1 open-label fixed-sequence 2-period drug-drug interaction study: effect of single oral dose of Compound A on PK of dabigatran (P-gp probe substrate); assay type: in vivo; conditions: co-administration of Compound A with dabigatran in healthy participants
T2 construct: from tissue; host or cells: intestine of healthy human participants (in vivo)
T2 sequence (P08183 whole entry): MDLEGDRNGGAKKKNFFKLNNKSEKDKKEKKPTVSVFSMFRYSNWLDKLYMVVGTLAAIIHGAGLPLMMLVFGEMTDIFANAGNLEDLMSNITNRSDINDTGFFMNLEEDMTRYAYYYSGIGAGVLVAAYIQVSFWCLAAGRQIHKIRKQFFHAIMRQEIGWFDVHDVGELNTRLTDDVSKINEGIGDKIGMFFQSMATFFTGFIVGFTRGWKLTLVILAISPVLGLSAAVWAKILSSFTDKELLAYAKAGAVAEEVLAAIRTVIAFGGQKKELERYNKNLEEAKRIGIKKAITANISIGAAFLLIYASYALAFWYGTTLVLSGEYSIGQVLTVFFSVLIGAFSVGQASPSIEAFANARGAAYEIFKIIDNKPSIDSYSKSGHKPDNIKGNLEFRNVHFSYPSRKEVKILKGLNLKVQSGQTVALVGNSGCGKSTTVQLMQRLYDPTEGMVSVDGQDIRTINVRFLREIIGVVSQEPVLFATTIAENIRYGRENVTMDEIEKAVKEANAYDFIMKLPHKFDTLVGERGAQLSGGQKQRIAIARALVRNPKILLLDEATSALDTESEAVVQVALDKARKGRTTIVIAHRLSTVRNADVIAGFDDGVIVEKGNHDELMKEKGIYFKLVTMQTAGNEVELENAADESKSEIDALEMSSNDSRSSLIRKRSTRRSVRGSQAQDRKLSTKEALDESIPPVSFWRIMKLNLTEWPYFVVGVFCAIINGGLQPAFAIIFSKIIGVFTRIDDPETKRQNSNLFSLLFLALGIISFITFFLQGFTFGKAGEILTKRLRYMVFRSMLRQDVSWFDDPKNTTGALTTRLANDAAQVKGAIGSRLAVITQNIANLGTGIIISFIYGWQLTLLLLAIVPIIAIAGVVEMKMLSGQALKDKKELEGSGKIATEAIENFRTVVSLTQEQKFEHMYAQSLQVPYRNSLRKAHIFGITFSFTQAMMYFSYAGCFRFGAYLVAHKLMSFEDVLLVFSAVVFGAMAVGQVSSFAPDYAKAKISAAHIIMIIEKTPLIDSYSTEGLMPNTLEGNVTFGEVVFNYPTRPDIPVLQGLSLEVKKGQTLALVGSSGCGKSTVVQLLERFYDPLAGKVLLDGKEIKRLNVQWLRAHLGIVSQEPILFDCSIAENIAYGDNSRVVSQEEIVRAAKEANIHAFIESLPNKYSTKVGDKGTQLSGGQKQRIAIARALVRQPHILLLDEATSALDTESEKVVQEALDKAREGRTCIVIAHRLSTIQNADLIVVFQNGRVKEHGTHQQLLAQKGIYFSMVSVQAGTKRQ
Excerpt: Compound A was investigated in an interventional, Phase 1, open-label, fixed sequence, 2-period study to evaluate the effect of a single oral dose of Compound A on the PK of dabigatran in healthy participants.
The objective of this drug-drug interaction study was to evaluate the impact of Compound A on the PK of dabigatran etexilate (a model substrate for P-gp) in healthy adults (NCT05673889)
All participants in this study received one dose of dabigatran etexilate mesylate alone by mouth in Period 1. In Period 2, everyone received one dose of dabigatran etexilate mesylate by mouth approximately 90 mins after receiving one dose of Compound A by mouth. The levels of dabigatran in Period I were compared to the levels of dabigatran in Period 2. This study design was used to determine if and how Compound A affects dabigatran absorption into the body in healthy adults.
This was a Phase 1, open-label, 2-period, fixed-sequence study to estimate the effect of a single oral dose of Compound A on the PK of a P-gp substrate, dabigatran etexilate (as mesylate), in healthy male participants and female participants with nonchildbearing potential. […]
Natural log transformed parameters (AUCinf [if data permitted], AUClast, and Cmax) of total dabigatran were analyzed using a mixed effect model with treatment as a fixed effect and participant as a random effect. […]

[5] = dabigatran etexilate mesylate 75 mg alone
[6] = dabigatran etexilate mesylate 75 mg alone, considered treatment related
[7] = dabigatran etexilate mesylate 75 mg alone, not considered treatment related
[8] = single dose dabigatran etexilate mesylate 75 mg (Treatment Period 1)
[9] = Compound A 200 mg and dabigatran etexilate mesylate 75 mg, not considered treatment related
[10] = single dose Compound A 200 mg and dabigatran etexilate mesylate 75 mg
[11] = single dose Compound A 200 mg and dabigatran etexilate mesylate 75 mg (Treatment Period 2)

CCCCCCOC(=O)NC(=N)c1ccc(NCc2nc3cc(C(=O)N(CCC(=O)OCC)c4ccccn4)ccc3n2C)cc1 [dabigatran etexilate mesylate, β-Alanine, N-[[2-[[[4-[[[(hexyloxy)carbonyl]amino]iminomethyl]phenyl]amino]methyl]-1-methyl-1H-benzimidazol-5-yl]carbonyl]-N-2-pyridinyl-, ethyl ester]
participants with mild AE of dry throat [1, 5]: 1 (4.2%) participants (%) | participants with mild AE of lip dry [1, 5]: 1 (4.2%) participants (%) | participants with mild AE of diarrhea [1, 6]: 1 (4.2%) participants (%) | participants with mild AE of dry skin [1, 6]: 1 (4.2%) participants (%) | participants with mild AE of hot flush [1, 6]: 1 (4.2%) participants (%) | participants with mild AE of nausea [1, 6]: 1 (4.2%) participants (%) | participants with moderate AE of hematoma [1, 7]: 2 (8.3%) participants (%) | participants with moderate AE of myalgia [1, 7]: 1 (4.2%) participants (%) | participants with Monocytes/Leukocytes >1.2× upper limit of normal (ULN) ([1]; single dose dabigatran etexilate mesylate 75 mg): 2 (8.3%) participants (%) | number of AEs considered treatment related [1, 8]: 4 | participants with all-causality AEs (TEAEs) [1, 8]: 6 (25.0%) participants (%) | participants with treatment related AEs [1, 8]: 3 (12.5%) participants (%) | number of all-causality adverse events (AEs) [1, 8]: 9

O=C1CC[C@@H](N2Cc3cc(N4CCN(CC5CCN(c6ccc([C@@H]7c8ccc(O)cc8CC[C@@H]7c7ccccc7)cc6)CC5)CC4)ccc3C2=O)C(=O)N1 [Compound B]
exposure of Compound B compared to Compound A [2]: < 26% | degradation of the ER (ER): does not degrade the ER | antagonism of ER-dependent transcription compared to Compound A [3]: similar

O=C1CC[C@H](N2Cc3cc(N4CCN(CC5CCN(c6ccc([C@@H]7c8ccc(O)cc8CC[C@@H]7c7ccccc7)cc6)CC5)CC4)ccc3C2=O)C(=O)N1 [Compound A, (S)-3-(5-(4-((1-(4-((1R,2S)-6-hydroxy-2-phenyl-1,2,3,4-tetrahydronaphthalen-1-yl)phenyl)piperidin-4-yl)methyl)piperazin-1-yl)-1-oxoisoindolin-2-yl) piperidine-2,6-dione]
participants with moderate AE of contusion ([1]; Compound A 200 mg and dabigatran etexilate mesylate 75 mg): 1 (4.2%) participants (%) | participants with moderate AE of headache ([1]; Compound A 200 mg and dabigatran etexilate mesylate 75 mg, considered treatment related): 1 (4.2%) participants (%) | participants with mild AE of contusion [1, 9]: 1 (4.2%) participants (%) | participants with mild AE of oropharyngeal pain [1, 9]: 1 (4.2%) participants (%) | participants with mild AE of rhinorrhea [1, 9]: 1 (4.2%) participants (%) | participants with mild AE of wound [1, 9]: 1 (4.2%) participants (%) | participants with Leukocyte Esterase ≥1 [1, 10]: 1 (4.2%) participants (%) | participants with Monocytes/Leukocytes >1.2×ULN [1, 10]: 2 (8.3%) participants (%) | number of AEs considered treatment related [1, 11]: 1 | participants with all-causality AEs (TEAEs) [1, 11]: 6 (25.0%) participants (%) | number of all-causality adverse events (AEs) [1, 11]: 7 | participants with treatment related AEs ([1]; single dose Compound A 200 mg and dabigatran etexilate mesylate 75 mg (Treatment Period 2), headache): 1 (4.2%) participants (%) | Biopharmaceutics Classification System class [4]: Class IV | P-gp inhibition (conclusion from increased dabigatran exposure) (P-gp): P-gp inhibitor

[H]/N=C(/N)c1ccc(NCc2nc3cc(C(=O)N(CCC(=O)O)c4ccccn4)ccc3n2C)cc1 [dabigatran, 3-[[2-[(4-carbamimidoylanilino)methyl]-1-methylbenzimidazole-5-carbonyl]-pyridin-2-ylamino]propanoic acid]
participants with all-causality AEs (TEAEs) [1, 8]: 6 (25.0%) participants (%) | participants with treatment related AEs [1, 8]: 3 (12.5%) participants (%)
